The values below come from article PMC12120022, “Discovery and chemical optimisation of a potent, Bi-cyclic antimicrobial inhibitor of Escherichia coli PBP3” (Communications Biology, 2025).

The structures appear in SMILES notation. Where a SMILES comes first, the peptide text is derived from it.

The target of this assay is T1, EcPBP3 (Escherichia coli, UniProt P0AD68).
T1 construct: For assays, selections and SPR a construct with residues 60–588 which has the N-terminal domain, but not the transmembrane helix, was used; made in house
The assay can be described thus: Fluorescence polarisation competition assay with fluorescent Bicycle tracer (tracer 1 / BCY12820). In kind it is binding. To be noted: protein 9.4 nM sets sensitivity limit, top concentration 5 µM, read-out: Ki (nM) by fluorescence polarisation with tracer 1 (BCY12820 as tracer), Geometric mean (Lower 95% CI; Upper 95% CI, n=number of values). Here is the method:
Competition fluorescence polarisation assays were run by observing the fluorescence polarisation of a fluorescent “tracer” Bicycle molecule which competes against an unlabelled peptide for binding to the EcPBP3 target. 10 µL of protein (9.4 nM) was mixed with either 5 µL of peptide or 5 µL of buffer and then the assay was initiated by the addition of 10 µL of tracer (1 nM) (final volume 25 µL), in a black 384 low bind, low volume plate (Corning). The buffer was 10 mM HEPES (Sigma), 2% (v/v) glycerol (Sigma), 300 mM NaCl (Sigma), adjusted to pH 8. The plate was incubated for 1 h at 25 °C and then read in a PHERAstar FS (BMG) using with an “FP 485 520 520” optic module (excitation 485 nm, emission 520 nm). The gain was determined immediately prior to the read on a tracer-only well.
Dotmatics (Dotmatics) workflows performing the above calculations were used to process the data. Values quoted are the geometric means of at least 2 repeats.

T1 sequence (P0AD68 60-588): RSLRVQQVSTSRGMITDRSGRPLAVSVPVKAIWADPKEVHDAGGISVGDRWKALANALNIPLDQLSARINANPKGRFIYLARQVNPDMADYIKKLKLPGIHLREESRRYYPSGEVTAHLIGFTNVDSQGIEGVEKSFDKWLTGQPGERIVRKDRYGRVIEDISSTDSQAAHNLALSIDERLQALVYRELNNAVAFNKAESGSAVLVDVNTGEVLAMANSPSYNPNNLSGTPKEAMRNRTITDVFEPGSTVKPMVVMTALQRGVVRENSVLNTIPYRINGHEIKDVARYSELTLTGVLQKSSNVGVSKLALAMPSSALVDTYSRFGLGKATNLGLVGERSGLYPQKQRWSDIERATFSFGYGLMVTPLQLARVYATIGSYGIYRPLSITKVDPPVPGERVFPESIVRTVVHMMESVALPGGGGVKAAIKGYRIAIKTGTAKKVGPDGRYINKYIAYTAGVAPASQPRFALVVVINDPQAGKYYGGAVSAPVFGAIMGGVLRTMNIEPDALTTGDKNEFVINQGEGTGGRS

What is called Ki is the equilibrium dissociation constant of an inhibitor or competing ligand from its target. For the compound `CC(C)[C@@H]1NC(=O)[C@H](Cc2c[nH]c3ccccc23)NC(=O)[C@@H]2CCCN2C(=O)[C@@H]2CSCCC(=O)N3CN(CN(C3)C(=O)CCSC[C@H](NC(=O)[C@H](C)N)C(=O)N[C@@H](CO)C(=O)N[C@@H](Cc3ccccc3)C(=O)N[C@@H]([C@@H](C)O)C(=O)N[C@@H](CCCCNC(=N)N)C(=O)N2)C(=O)CCSC[C@@H](C(=O)N[C@@H](C)C(N)=O)NC(=O)CNC(=O)[C@H](CCC(=O)O)NC1=O` [Peptide 36] (HELM PEPTIDE1{A.C.S.F.T.[N=C(N)NCCCC[C@H](N[*:1])C(=O)[*:2]].C.P.W.V.E.G.C.A.[am]}|CHEM1{[O=C(CC[*:1])N1CN(C(=O)CC[*:2])CN(C(=O)CC[*:3])C1]}$PEPTIDE1,CHEM1,2:R3-1:R1|PEPTIDE1,CHEM1,7:R3-1:R2|PEPTIDE1,CHEM1,13:R3-1:R3$$$V2.0), the Ki worked out at 75 nM.

In the case of `CC(C)[C@@H]1NC(=O)[C@H](Cc2c[nH]c3ccccc23)NC(=O)[C@@H]2CCCN2C(=O)[C@@H]2CSCCC(=O)N3CN(CN(C3)C(=O)CCSC[C@H](NC(=O)[C@H](C)N)C(=O)N[C@@H](CO)C(=O)N[C@@H](Cc3ccccc3)C(=O)N[C@@H](Cc3c[nH]cn3)C(=O)N[C@@H](CCCCNC(=N)N)C(=O)N2)C(=O)CCSC[C@@H](C(=O)N[C@@H](C)C(N)=O)NC(=O)CNC(=O)[C@H](CCC(=O)O)NC1=O` [Peptide 37] (HELM PEPTIDE1{A.C.S.F.H.[N=C(N)NCCCC[C@H](N[*:1])C(=O)[*:2]].C.P.W.V.E.G.C.A.[am]}|CHEM1{[O=C(CC[*:1])N1CN(C(=O)CC[*:2])CN(C(=O)CC[*:3])C1]}$PEPTIDE1,CHEM1,2:R3-1:R1|PEPTIDE1,CHEM1,7:R3-1:R2|PEPTIDE1,CHEM1,13:R3-1:R3$$$V2.0), the Ki amounted to 31.5 nM. On to `CC(C)[C@@H]1NC(=O)[C@H](Cc2c[nH]c3ccccc23)NC(=O)[C@@H]2CCCN2C(=O)[C@@H]2CSCCC(=O)N3CN(CN(C3)C(=O)CCSC[C@H](NC(=O)[C@H](C)N)C(=O)N[C@@H](CO)C(=O)N[C@@H](Cc3ccccc3)C(=O)N[C@@H](CC(=O)O)C(=O)N[C@@H](CCCCNC(=N)N)C(=O)N2)C(=O)CCSC[C@@H](C(=O)N[C@@H](C)C(N)=O)NC(=O)CNC(=O)[C@H](CCC(=O)O)NC1=O` [Peptide 38] (HELM PEPTIDE1{A.C.S.F.D.[N=C(N)NCCCC[C@H](N[*:1])C(=O)[*:2]].C.P.W.V.E.G.C.A.[am]}|CHEM1{[O=C(CC[*:1])N1CN(C(=O)CC[*:2])CN(C(=O)CC[*:3])C1]}$PEPTIDE1,CHEM1,2:R3-1:R1|PEPTIDE1,CHEM1,7:R3-1:R2|PEPTIDE1,CHEM1,13:R3-1:R3$$$V2.0), for which the Ki was 167 nM. `CC(C)[C@@H]1NC(=O)[C@H](Cc2c[nH]c3ccccc23)NC(=O)CNC(=O)[C@@H]2CSCCC(=O)N3CN(CN(C3)C(=O)CCSC[C@H](NC(=O)[C@H](C)N)C(=O)N[C@@H](CO)C(=O)N[C@@H](Cc3ccccc3)C(=O)N3CCC[C@H]3C(=O)N[C@@H](CCCCNC(=N)N)C(=O)N2)C(=O)CCSC[C@@H](C(=O)N[C@@H](C)C(N)=O)NC(=O)CNC(=O)[C@H](CCC(=O)O)NC1=O` [Peptide 41] (HELM PEPTIDE1{A.C.S.F.P.[N=C(N)NCCCC[C@H](N[*:1])C(=O)[*:2]].C.G.W.V.E.G.C.A.[am]}|CHEM1{[O=C(CC[*:1])N1CN(C(=O)CC[*:2])CN(C(=O)CC[*:3])C1]}$PEPTIDE1,CHEM1,2:R3-1:R1|PEPTIDE1,CHEM1,7:R3-1:R2|PEPTIDE1,CHEM1,13:R3-1:R3$$$V2.0): the Ki was more than 5000 nM.

Take `CC(C)[C@@H]1NC(=O)[C@H](Cc2ccc(O)cc2)NC(=O)[C@@H]2CCCN2C(=O)[C@@H]2CSCCC(=O)N3CN(CN(C3)C(=O)CCSC[C@H](NC(=O)[C@H](C)N)C(=O)N[C@@H](CO)C(=O)N[C@@H](Cc3ccccc3)C(=O)N3CCC[C@H]3C(=O)N[C@@H](CCCCNC(=N)N)C(=O)N2)C(=O)CCSC[C@@H](C(=O)N[C@@H](C)C(N)=O)NC(=O)CNC(=O)[C@H](CCC(=O)O)NC1=O` [Peptide 42] (HELM PEPTIDE1{A.C.S.F.P.[N=C(N)NCCCC[C@H](N[*:1])C(=O)[*:2]].C.P.Y.V.E.G.C.A.[am]}|CHEM1{[O=C(CC[*:1])N1CN(C(=O)CC[*:2])CN(C(=O)CC[*:3])C1]}$PEPTIDE1,CHEM1,2:R3-1:R1|PEPTIDE1,CHEM1,7:R3-1:R2|PEPTIDE1,CHEM1,13:R3-1:R3$$$V2.0): the Ki is 209 nM. For `CC(C)[C@@H]1NC(=O)[C@H](Cc2c[nH]cn2)NC(=O)[C@@H]2CCCN2C(=O)[C@@H]2CSCCC(=O)N3CN(CN(C3)C(=O)CCSC[C@H](NC(=O)[C@H](C)N)C(=O)N[C@@H](CO)C(=O)N[C@@H](Cc3ccccc3)C(=O)N3CCC[C@H]3C(=O)N[C@@H](CCCCNC(=N)N)C(=O)N2)C(=O)CCSC[C@@H](C(=O)N[C@@H](C)C(N)=O)NC(=O)CNC(=O)[C@H](CCC(=O)O)NC1=O` [Peptide 44] (HELM PEPTIDE1{A.C.S.F.P.[N=C(N)NCCCC[C@H](N[*:1])C(=O)[*:2]].C.P.H.V.E.G.C.A.[am]}|CHEM1{[O=C(CC[*:1])N1CN(C(=O)CC[*:2])CN(C(=O)CC[*:3])C1]}$PEPTIDE1,CHEM1,2:R3-1:R1|PEPTIDE1,CHEM1,7:R3-1:R2|PEPTIDE1,CHEM1,13:R3-1:R3$$$V2.0) the value was more than 5000 nM; for `CC[C@H](C)[C@@H]1NC(=O)[C@H](Cc2c[nH]c3ccccc23)NC(=O)[C@@H]2CCCN2C(=O)[C@@H]2CSCCC(=O)N3CN(CN(C3)C(=O)CCSC[C@H](NC(=O)[C@H](C)N)C(=O)N[C@@H](CO)C(=O)N[C@@H](Cc3ccccc3)C(=O)N3CCC[C@H]3C(=O)N[C@@H](CCCCNC(=N)N)C(=O)N2)C(=O)CCSC[C@@H](C(=O)N[C@@H](C)C(N)=O)NC(=O)CNC(=O)[C@H](CCC(=O)O)NC1=O` [Peptide 45] (HELM PEPTIDE1{A.C.S.F.P.[N=C(N)NCCCC[C@H](N[*:1])C(=O)[*:2]].C.P.W.I.E.G.C.A.[am]}|CHEM1{[O=C(CC[*:1])N1CN(C(=O)CC[*:2])CN(C(=O)CC[*:3])C1]}$PEPTIDE1,CHEM1,2:R3-1:R1|PEPTIDE1,CHEM1,7:R3-1:R2|PEPTIDE1,CHEM1,13:R3-1:R3$$$V2.0), less than 9 nM; for `C[C@H](N)C(=O)N[C@H]1CSCCC(=O)N2CN3CN(C2)C(=O)CCSC[C@H](NC(=O)[C@H](CCCCNC(=N)N)NC(=O)[C@@H]2CCCN2C(=O)[C@H](Cc2ccccc2)NC(=O)[C@H](CO)NC1=O)C(=O)N1CCC[C@H]1C(=O)N[C@@H](Cc1c[nH]c2ccccc12)C(=O)N[C@@H]([C@@H](C)O)C(=O)N[C@@H](CCC(=O)O)C(=O)NCC(=O)N[C@H](C(=O)N[C@@H](C)C(N)=O)CSCCC3=O` [Peptide 46] (HELM PEPTIDE1{A.C.S.F.P.[N=C(N)NCCCC[C@H](N[*:1])C(=O)[*:2]].C.P.W.T.E.G.C.A.[am]}|CHEM1{[O=C(CC[*:1])N1CN(C(=O)CC[*:2])CN(C(=O)CC[*:3])C1]}$PEPTIDE1,CHEM1,2:R3-1:R1|PEPTIDE1,CHEM1,7:R3-1:R2|PEPTIDE1,CHEM1,13:R3-1:R3$$$V2.0), 15.5 nM. Next, `CC(C)[C@@H]1NC(=O)[C@H](Cc2c[nH]c3ccccc23)NC(=O)[C@@H]2CCCN2C(=O)[C@@H]2CSCCC(=O)N3CN(CN(C3)C(=O)CCSC[C@H](NC(=O)[C@H](C)N)C(=O)N[C@@H](CO)C(=O)N[C@@H](Cc3ccccc3)C(=O)N3CCC[C@H]3C(=O)N[C@@H](CCCCNC(=N)N)C(=O)N2)C(=O)CCSC[C@@H](C(=O)N[C@@H](C)C(N)=O)NC(=O)CNC(=O)[C@@H]2CCCN2C1=O` [Peptide 47] (HELM PEPTIDE1{A.C.S.F.P.[N=C(N)NCCCC[C@H](N[*:1])C(=O)[*:2]].C.P.W.V.P.G.C.A.[am]}|CHEM1{[O=C(CC[*:1])N1CN(C(=O)CC[*:2])CN(C(=O)CC[*:3])C1]}$PEPTIDE1,CHEM1,2:R3-1:R1|PEPTIDE1,CHEM1,7:R3-1:R2|PEPTIDE1,CHEM1,13:R3-1:R3$$$V2.0): 18 nM; `CC(C)C[C@@H]1NC(=O)[C@H](C(C)C)NC(=O)[C@H](Cc2c[nH]c3ccccc23)NC(=O)[C@@H]2CCCN2C(=O)[C@@H]2CSCCC(=O)N3CN(CN(C3)C(=O)CCSC[C@H](NC(=O)[C@H](C)N)C(=O)N[C@@H](CO)C(=O)N[C@@H](Cc3ccccc3)C(=O)N3CCC[C@H]3C(=O)N[C@@H](CCCCNC(=N)N)C(=O)N2)C(=O)CCSC[C@@H](C(=O)N[C@@H](C)C(N)=O)NC(=O)CNC1=O` [Peptide 48] (HELM PEPTIDE1{A.C.S.F.P.[N=C(N)NCCCC[C@H](N[*:1])C(=O)[*:2]].C.P.W.V.L.G.C.A.[am]}|CHEM1{[O=C(CC[*:1])N1CN(C(=O)CC[*:2])CN(C(=O)CC[*:3])C1]}$PEPTIDE1,CHEM1,2:R3-1:R1|PEPTIDE1,CHEM1,7:R3-1:R2|PEPTIDE1,CHEM1,13:R3-1:R3$$$V2.0): 49.7 nM. Next, `CC(C)[C@@H]1NC(=O)[C@H](Cc2c[nH]c3ccccc23)NC(=O)[C@@H]2CCCN2C(=O)[C@@H]2CSCCC(=O)N3CN(CN(C3)C(=O)CCSC[C@@H](C(=O)N[C@@H](C)C(N)=O)NC(=O)[C@H](CC(N)=O)NC(=O)[C@H](CCC(=O)O)NC1=O)C(=O)CCSC[C@H](NC(=O)[C@H](C)N)C(=O)N[C@@H](CO)C(=O)N[C@@H](Cc1ccccc1)C(=O)N1CCC[C@H]1C(=O)N[C@@H](CCCCNC(=N)N)C(=O)N2` [Peptide 52] (HELM PEPTIDE1{A.C.S.F.P.[N=C(N)NCCCC[C@H](N[*:1])C(=O)[*:2]].C.P.W.V.E.N.C.A.[am]}|CHEM1{[O=C(CC[*:1])N1CN(C(=O)CC[*:2])CN(C(=O)CC[*:3])C1]}$PEPTIDE1,CHEM1,2:R3-1:R1|PEPTIDE1,CHEM1,7:R3-1:R2|PEPTIDE1,CHEM1,13:R3-1:R3$$$V2.0): less than 9 nM.
